Like-named read-outs stand apart in the source and are kept apart here.
Assays:
LNCaP/AR cells = assay: Inhibition of the proliferation of LNCap/AR cells (CCK-8); assay type: cell-based; conditions: read-out: LNCap/AR IC50
In short: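 LNCaP/AR cells (1000/well, RPMI1640 + 10% FBS) were treated for 6 days at 37 °C with 9-point 3-fold dilutions from 10 μM final, 0.1% DMSO, in duplicate. Viability was read by CCK-8 absorbance at 450 nm after 1 h, and IC50 came from a dose-response-inhibition fit.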

22RV1 cells = assay: Inhibition of the proliferation of drug-resistant prostate cancer cell 22RV1 (CCK-8); assay type: cell-based; conditions: 22RV1 cells (enzalutamide-resistant), same method
Experimental: (1) Experimental materials and instruments: LNCaP/AR cell line and 22RV1 cell line (provided by Sichuan Kangcheng Biotechnology Co., Ltd.) Fetal bovine serum FBS (Gibco, Cat. No. 10099-141) 0.01M PBS (Biosharp, Cat. No. 162262) RIPM1640 medium (Hyclone, Cat. No. 308090.01) Penicillin-Streptomycin (Hyclone, Cat. No. SV30010) Cell counting kit-8 (Signalway Antibody, Cat. No. CP002) DMSO (Sigma, Cat. No. D5879) Centrifuge Tube, 15 ml (Excell Bio, Cat. No. CS015-0001) Cell Culture Dish, (Excell Bio, Cat. No. CS016-0128) 96-well cell culture plate (Corning, Cat. No. 3599) Microplate reader (Thermo Multiskan MK3 type)
a. Preparation of Buffer Cell culture medium: RIPM1640 medium, 10% FBS, 1% Pen Strep: PBS buffer: PBS powder was dissolved in 2 L of ultrapure water and sterilized. b. Experimental Procedures 1) LNCaP/AR cells were subcultured in cell culture media, and then the cells in good growth condition were seeded in a 96-well plate at 80 μL/well (1000 cells/well), and cultured overnight in a 37° C., 5% CO2 cell incubator. 2) The drug was prepared into a 10 mM stock solution with dimethyl sulfoxide (DMSO). Prior to use, the stock solution was diluted in a ratio of […] with DMSO, and then diluted at a 3-fold gradient to obtain 9 serial concentrations. Then, each concentration of compound was further diluted in a ratio of 1:200 with the culture medium (to ensure that the DMSO concentration in the culture system was 0.1%), and two wells were set for each concentration. 20 μL of the diluted compound solution was added to the well of the cell culture (with a final concentration of 10 μM, 3.3 μM, 1.1 μM . . . ), and then the plate was gently tapped to thoroughly mix. In addition, the experiment included 3 negative control wells only containing cells and 3 blank control wells only containing culture medium (6 wells were each added with DMSO diluted in a ratio of 1:200 with 20 μL of culture medium). c. Result Detection: 1) After culturing for 6 days, 10 μL of CCK-8 was added to each well, and the plate was further incubated for 1 h in a 37° C., 5% CO2 cell incubator. 2) The absorbance (OD value) was measured at 450 nm with a multifunctional microplate reader. 3) The data was analyzed by the Dose-response-inhibition equation in the software GraphPad Prism5, and the IC50 value was obtained. 2. Biological assay of the inhibition on the proliferation of other drug-resistant prostate cancer cells
The same test method was used to determine the inhibitory activity of the compound according to the present invention against drug-resistant prostate cancer cell 22RV1.

[1] = 144 h, LNCaP/AR cells, 6 days culture, CCK-8
[2] = LNCaP/AR cells, 6 days culture, CCK-8

Cc1ccc(-c2c(C)noc2C)cc1N(C[C@H]1CC[C@H](CNc2ccc3c(c2)C(=O)N(C2CCC(=O)NC2=O)C3=O)CC1)c1ccc(C#N)c(Cl)c1 (stereo partly drawn) [Compound 132, 2-Chloro-4-((5-(3,5-dimethylisoxazol-4-yl)-2-methylphenyl)(((1r,4r)-4-(((2-(2,6-dioxopiperidin-3-yl)-1,3-dioxoisoindolin-5-yl)amino)methyl)cyclohexyl)methyl)amino)benzonitrile]
IC50 (LNCaP/AR cells; LNCaP/AR, 144 h): > 2000 nM | IC50 (22RV1 cells; Homo sapiens): 101 to 500 nM

Cc1ccc(-c2c(C)noc2C)cc1N(C[C@H]1C[C@@H]1CNc1ccc2c(c1)C(=O)N(C1CCC(=O)NC1=O)C2=O)c1ccc(C2(C#N)CC2)cc1 (stereo partly drawn) [Compound 182]
IC50 (LNCaP/AR cells; [1]): > 2000 nM | IC50 (22RV1 cells; Homo sapiens): 101 to 500 nM

Cc1ccc(-c2c(C)noc2C)cc1N(CCCCCOCC(=O)N[C@H](C(=O)N1C[C@H](O)C[C@H]1C(=O)N[C@@H](C)c1ccc(-c2scnc2C)cc1)C(C)(C)C)c1ccc(C2(C#N)CC2)cc1 [Compound 143]
IC50 (LNCaP/AR cells; [1]): 101 to 500 nM | IC50 (22RV1 cells; Homo sapiens): < 100 nM

Cc1ccc(-c2c(C)noc2C)cc1N(CC(C)O[C@@H]1CCN(c2ccc3c(c2)C(=O)N(C2CCC(=O)NC2=O)C3=O)C1)c1ccc(C2(C#N)CC2)cc1 (stereo partly drawn) [Compound 102, 1-(4-((5-(3,5-Dimethylisoxazol-4-yl)-2-methylphenyl)(2-(((3R)-1-(2-(2,6-dioxopiperidin-3-yl)-1,3-dioxoisoindolin-5-yl)pyrrolidin-3-yl)oxy)propyl)amino)phenyl)cyclopropanecarbonitrile]
IC50 (LNCaP/AR cells; [1]): > 2000 nM | IC50 (22RV1 cells; Homo sapiens): > 2000 nM

Cc1ccc(-c2c(C)noc2C)cc1N(CCCNc1cc2c(cc1F)C(=O)N(C1CCC(=O)NC1=O)C2=O)c1ccc(C2(C#N)CC2)cc1 (stereo not drawn) [Compound 171, 1-(4-((5-(3,5-Dimethylisoxazol-4-yl)-2-methylphenyl)(3-((2-(2,6-dioxopiperidin-3-yl)-6-fluoro-1,3-dioxoidindolin-5-yl)amino)propyl)amino)phenyl)cyclopropane-1-nitrile]
IC50 (LNCaP/AR cells; [2]): > 2000 nM | IC50 (22RV1 cells): > 2000 nM

Cc1ccc(-c2c(C)noc2C)cc1N(CC(C)O[C@H]1CCN(c2ccc3c(c2)C(=O)N(C2CCC(=O)NC2=O)C3=O)C1)c1ccc(C2(C#N)CC2)cc1 (stereo partly drawn) [Compound 103, 1-(4-((5-(3,5-Dimethylisoxazol-4-yl)-2-methylphenyl)(2-(((3S)-1-(2-(2,6-dioxopiperidin-3-yl)-1,3-dioxoisoindolin-5-yl)pyrrolidin-3-yl)oxy)propyl)amino)phenyl)cyclopropanecarbonitrile]
IC50 (LNCaP/AR cells; [1]): > 2000 nM | IC50 (22RV1 cells; Homo sapiens): > 2000 nM

Cc1ccc(-c2c(C)noc2C)cc1N(CCCOC1CN(c2ccc3c(c2)C(=O)N(C2CCC(=O)NC2=O)C3=O)C1)c1ccc(C2(C#N)CC2)cc1 (stereo not drawn) [Compound 119, 1-(4-((5-(3,5-dimethylisoxazol-4-yl)-2-methylphenyl)(3-((1-(2-(2,6-dioxopiperidin-3-yl)-1,3-dioxoisoindolin-5-yl)azetidin-3-yl)oxy)propyl)amino)phenyl)cyclopropane-1-nitrile]
IC50 (LNCaP/AR cells; [1]): 101 to 500 nM | IC50 (22RV1 cells; Homo sapiens): > 2000 nM

Cc1ccc(-c2c(C)noc2C)cc1N(CC1CC2(C1)CN(c1cc3c(cc1F)CN(C1CCC(=O)NC1=O)C3=O)C2)c1ccc(C2(C#N)CC2)cc1 (stereo not drawn) [Compound 126, 1-(4-((5-(3,5-dimethylisoxazol-4-yl)-2-methylphenyl)((2-(2-(2-,2,6-dioxopiperidin-3-yl)-6-fluoro-3-oxoisoindolin-5-yl)-2-azaspiro[3.3]heptan-6-yl)methyl)amino)phenyl)cyclopropane-1-carbonitrile]
IC50 (LNCaP/AR cells; [2]): 501 to 2000 nM | IC50 (22RV1 cells): > 2000 nM

Cc1ccc(-c2c(C)noc2C)cc1N(CC1CN([C@H]2C[C@@H](Nc3cc4c(cc3F)C(=O)N(C3CCC(=O)NC3=O)C4=O)C2)C1)c1ccc(C2(C#N)CC2)cc1 (stereo partly drawn) [Compound 71, 1-(4-((5-(3,5-dimethylisoxazol-4-yl)-2-methylphenyl)((1-((1s,3s)-3-((2-(2,6-dioxopiperidin-3-yl)-6-fluoro-1,3-dioxoisoindolin-5-yl)amino)cyclobutyl)azetidin-3-yl)methyl)amino)phenyl)cyclopropane-1-nitrile]
IC50 (LNCaP/AR cells; [1]): > 2000 nM | IC50 (22RV1 cells; Homo sapiens): > 2000 nM

Cc1ccc(-c2c(C)noc2C)cc1N(c1ccc(C2(C#N)CC2)cc1)C1CN(C2CC(Nc3cc4c(cc3F)C(=O)N([C@H]3CCC(=O)NC3=O)C4)C2)C1 (stereo partly drawn) [Compound 69, 1-(4-((5-(3,5-dimethylisoxazol-4-yl)-2-methylphenyl)(1-((1 s,3s)-3-((2-(2,6-dioxopiperidin-3-yl)-6-fluoro-1-oxoisoindolin-5-yl)amino)cyclobutyl)azetidin-3-yl)amino)phenyl)cyclopropane-1-nitrile]
IC50 (LNCaP/AR cells; [2]): > 2000 nM | IC50 (22RV1 cells): > 2000 nM

Cc1ccc(-c2c(C)noc2C)cc1N(CC(C)OC1CN(c2ccc3c(c2)C(=O)N(C2CCC(=O)NC2=O)C3)C1)c1ccc(C2(C#N)CC2)cc1 (stereo not drawn) [Compound 179, 1-(4-((5-(3,5-Dimethylisoxazol-4-yl)-2-methylphenyl)(2-((1-(2-(2,6-dioxopiperidin-3-yl)-3-oxoisoindolin-5-yl)azacyclobutane-3-yl)oxy)propyl)amino)phenyl)cyclopropane-1-nitrile]
IC50 (LNCaP/AR cells; [1]): > 2000 nM | IC50 (22RV1 cells; Homo sapiens): > 2000 nM

Cc1ccc(-c2c(C)noc2C)cc1N(CC1CCC(COc2ccc3c(c2)CN(C2CCC(=O)NC2=O)C3=O)CC1)c1ccc(C#N)c(Cl)c1 (stereo not drawn) [Compound 105, 2-Chloro-4-((5-(3,5-dimethylitsoxazol-4-yl)-2-methylphenyl)((1r,4r)-4-((2-((2,6-dioxopiperidin-3-yl)-1-oxoisoindolin-5-yl)oxy)methyl)cyclohexyl)methyl)amino)benzonitrile]
IC50 (LNCaP/AR cells; [2]): 501 to 2000 nM | IC50 (22RV1 cells): 101 to 500 nM

Cc1ccc(-c2c(C)noc2C)cc1N(CCN1CCN(c2ccc3c(c2)CN(C2CCC(=O)NC2=O)C3=O)CC1)c1ccc(C2(C#N)CC2)cc1 (stereo not drawn) [Compound 65, 1-(4-((5-(3,5-dimethylisoxazol-4-yl)-2-methylphenyl)(2-(4-(2-(2,6-dioxopiperidin-3-yl)-1-oxoisoindolin-5-yl)piperazin-1-yl)ethyl)amino)phenyl)cyclopropane-1-nitrile]
IC50 (LNCaP/AR cells; [1]): 501 to 2000 nM | IC50 (22RV1 cells; Homo sapiens): 101 to 500 nM

Cc1ccc(-c2c(C)noc2C)cc1N(C[C@H]1CC[C@H](Nc2cc3c(cc2F)CN(C2CCC(=O)NC2=O)C3=O)CC1)c1ccc(C2(C#N)CC2)c(Cl)c1 (stereo partly drawn) [Compound 114]
IC50 (LNCaP/AR cells; [2]): 101 to 500 nM | IC50 (22RV1 cells): 101 to 500 nM

Cc1ccc(-c2c(C)noc2C)cc1N(c1ccc(C2(C#N)CC2)cc1)C1CN(C2CCN(c3ccc4c(c3)C(=O)N(C3CCC(=O)NC3=O)C4=O)CC2)C1 (stereo not drawn) [Compound 66]
IC50 (LNCaP/AR cells; [1]): 101 to 500 nM | IC50 (22RV1 cells; Homo sapiens): < 100 nM

Cc1ccc(-c2c(C)noc2C)cc1N(CCCOC1CN(c2ccc3c(c2)C(=O)N(C2CCC(=O)NC2=O)C3)C1)c1ccc(C2(C#N)CC2)cc1 (stereo not drawn) [Compound 121, 1-(4-((5-(3,5-dimethylisoxazol-4-yl)-2-methylphenyl)(3-((1-(2-(2,6-dioxopiperidin-3-yl)-3-oxoisoindolin-5-yl)azetidin-3-yl)oxy)propyl)amino)phenyl)cyclopropane-1-nitrile]
IC50 (LNCaP/AR cells; [1]): 101 to 500 nM | IC50 (22RV1 cells; Homo sapiens): < 100 nM

Cc1ccc(-c2c(C)noc2C)cc1N(CC1CCC(Nc2cc3c(cc2F)CN(C2CCC(=O)NC2=O)C3=O)CC1)c1ccc(C2(C#N)CC2)cc1 (stereo not drawn) [Compound 162, 1-(4-((5-(3,5-Dimethylisoxazol-4-yl)-2-methylphenyl)(((1s,4s)-4-((2-(2,6-dioxopiperidin-3)-6-fluoro-3-isoindolinone-5-yl)amino)cyclohexyl)methyl)amino)phenyl)phenylcyclopropanecarbonitrile]
IC50 (LNCaP/AR cells; [2]): 101 to 500 nM | IC50 (22RV1 cells): > 2000 nM

Cc1ccc(-c2c(C)noc2C)cc1N(CC1CC2(CCN(c3cc4c(cc3F)C(=O)N(C3CCC(=O)NC3=O)C4=O)CC2)C1)c1ccc(C2(C#N)CC2)cc1 (stereo not drawn) [Compound 154]
IC50 (LNCaP/AR cells; [1]): 501 to 2000 nM | IC50 (22RV1 cells; Homo sapiens): 101 to 500 nM

Source: US20220257774A1, “AROMATIC AMINE AR AHD BET TARGETING PROTEIN DEGRADATION CHIMERA COMPOUND AND USE” (HINOVA PHARMACEUTICALS INC., priority 2019, published 2022)
